Assay results: patent publication US20240261274A1, “TREATMENT OF MYC-DRIVEN CANCERS WITH GSPT1 DEGRADERS” (MONTE ROSA THERAPEUTICS, INC., priority 2021, published 2024)
Like-named read-outs stand apart in the source and are kept apart here.

Tests used:
[1] = target: T1, Full length wild-type cereblon CRBN (Homo sapiens, UniProt Q96SW2); experiment: Fluorescence polarization (FP) assay indicating cereblon binding
T1 construct: Full length wild-type cereblon CRBN (80.0 nM, 10 μL) was incubated in assay buffer
T1 sequence (Q96SW2 whole entry): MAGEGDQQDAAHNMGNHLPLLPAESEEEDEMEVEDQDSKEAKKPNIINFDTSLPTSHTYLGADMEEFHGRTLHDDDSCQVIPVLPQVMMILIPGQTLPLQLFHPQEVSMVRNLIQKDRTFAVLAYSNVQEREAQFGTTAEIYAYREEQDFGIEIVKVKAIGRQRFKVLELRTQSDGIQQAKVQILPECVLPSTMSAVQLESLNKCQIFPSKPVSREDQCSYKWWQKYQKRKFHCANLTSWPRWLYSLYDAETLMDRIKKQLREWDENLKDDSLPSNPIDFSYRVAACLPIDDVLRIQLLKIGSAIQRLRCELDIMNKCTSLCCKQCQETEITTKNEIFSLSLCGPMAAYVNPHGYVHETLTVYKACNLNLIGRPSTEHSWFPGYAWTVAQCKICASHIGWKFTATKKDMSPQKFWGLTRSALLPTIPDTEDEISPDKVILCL
Experimental: Compound activity was monitored in a fluorescence polarization (FP) homogeneous assay using 1-[5-({2-[2-(2-{[2-(2,6-dioxopiperidin-3-yl)-1,3-dioxo-2,3-dihydro-1H-isoindol-4-yl]oxy}acetamido)ethoxy]ethyl}carbamoyl)pentyl]-3,3-dimethyl-2-[(1E,3E)-5-[(2E)-1,3,3-trimethyl-5-sulfo-2,3-dihydro-1H-indol-2-ylidene]penta-1,3-dien-1-yl]-3H-indol-1-ium-5-sulfonate as a fluorescent probe. Unless otherwise stated, all reagents were purchased from Sigma Aldrich. Enzymatic reactions were conducted in Perkin-Elmer Black 384 well ProxiPlate Plus (catalogue no. 6008269) in 10 μL total volume. Full length wild-type cereblon CRBN (80.0 nM, 10 μL) was incubated in assay buffer containing 20 mM HEPES (pH 8.0), […], 0.5 mM TCEP and 0.05% Tween 20 in the presence or absence of compound (300 nL). Inhibitors were stored as 10 mM DMSO stocks in an inert environment (low humidity, dark, low oxygen, room temperature) using the Storage Pod System. Compounds and DMSO were dispensed using the Echo E5XX (Labcyte Inc. USA) to give concentrations from 300 to 0.937 or 3000 to 9.3 nM in a 12 data point curve. […] Following incubation at room temperature for 30 min, the assay was initiated by dispensing the probe to a final concentration of 5 nM (2.5 nL of a 20 μM stock) using the Echo E5XX. FP was measured after a period of 12 hours using a Pherastar plate reader (BMG Labtech, Germany) exciting at 590 nm and measuring the amount of parallel and perpendicular light at 675 nm. The FP signal was subsequently normalized to the no-compound control (i.e., DMSO). Analysis and IC50 values were derived using Dotmatics (Dotmatics UK) software.

[2] = target: GSPT1 (Homo sapiens, UniProt P15170+Q96SW2); experiment: GSPT1 degradation immunofluorescence assay in CAL-51 cells; assay type: cell-based; design: endogenous in cells; host or cells: CAL-51 (DSMZ ACC302); conditions: 6 hours, Table 5B, read-out: Activity for GSPT1 degradation, Code (DC50)
GSPT1, sequence (P15170 whole entry): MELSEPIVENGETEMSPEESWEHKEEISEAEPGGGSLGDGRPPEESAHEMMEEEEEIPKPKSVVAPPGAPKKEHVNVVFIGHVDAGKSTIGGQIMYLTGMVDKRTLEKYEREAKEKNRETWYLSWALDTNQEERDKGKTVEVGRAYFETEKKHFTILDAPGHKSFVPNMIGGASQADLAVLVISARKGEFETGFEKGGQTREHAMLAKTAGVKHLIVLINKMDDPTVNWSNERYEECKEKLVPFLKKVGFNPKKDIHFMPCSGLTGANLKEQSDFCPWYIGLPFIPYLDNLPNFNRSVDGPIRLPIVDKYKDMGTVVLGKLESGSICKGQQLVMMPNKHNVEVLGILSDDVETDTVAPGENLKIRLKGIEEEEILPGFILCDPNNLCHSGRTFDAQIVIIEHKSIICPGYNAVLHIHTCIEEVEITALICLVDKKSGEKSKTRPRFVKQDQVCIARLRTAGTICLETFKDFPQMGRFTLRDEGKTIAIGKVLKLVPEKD
GSPT1, sequence (Q96SW2 whole entry): as the sequence (Q96SW2 whole entry) above
GSPT1, sequence (Q16531 whole entry partner): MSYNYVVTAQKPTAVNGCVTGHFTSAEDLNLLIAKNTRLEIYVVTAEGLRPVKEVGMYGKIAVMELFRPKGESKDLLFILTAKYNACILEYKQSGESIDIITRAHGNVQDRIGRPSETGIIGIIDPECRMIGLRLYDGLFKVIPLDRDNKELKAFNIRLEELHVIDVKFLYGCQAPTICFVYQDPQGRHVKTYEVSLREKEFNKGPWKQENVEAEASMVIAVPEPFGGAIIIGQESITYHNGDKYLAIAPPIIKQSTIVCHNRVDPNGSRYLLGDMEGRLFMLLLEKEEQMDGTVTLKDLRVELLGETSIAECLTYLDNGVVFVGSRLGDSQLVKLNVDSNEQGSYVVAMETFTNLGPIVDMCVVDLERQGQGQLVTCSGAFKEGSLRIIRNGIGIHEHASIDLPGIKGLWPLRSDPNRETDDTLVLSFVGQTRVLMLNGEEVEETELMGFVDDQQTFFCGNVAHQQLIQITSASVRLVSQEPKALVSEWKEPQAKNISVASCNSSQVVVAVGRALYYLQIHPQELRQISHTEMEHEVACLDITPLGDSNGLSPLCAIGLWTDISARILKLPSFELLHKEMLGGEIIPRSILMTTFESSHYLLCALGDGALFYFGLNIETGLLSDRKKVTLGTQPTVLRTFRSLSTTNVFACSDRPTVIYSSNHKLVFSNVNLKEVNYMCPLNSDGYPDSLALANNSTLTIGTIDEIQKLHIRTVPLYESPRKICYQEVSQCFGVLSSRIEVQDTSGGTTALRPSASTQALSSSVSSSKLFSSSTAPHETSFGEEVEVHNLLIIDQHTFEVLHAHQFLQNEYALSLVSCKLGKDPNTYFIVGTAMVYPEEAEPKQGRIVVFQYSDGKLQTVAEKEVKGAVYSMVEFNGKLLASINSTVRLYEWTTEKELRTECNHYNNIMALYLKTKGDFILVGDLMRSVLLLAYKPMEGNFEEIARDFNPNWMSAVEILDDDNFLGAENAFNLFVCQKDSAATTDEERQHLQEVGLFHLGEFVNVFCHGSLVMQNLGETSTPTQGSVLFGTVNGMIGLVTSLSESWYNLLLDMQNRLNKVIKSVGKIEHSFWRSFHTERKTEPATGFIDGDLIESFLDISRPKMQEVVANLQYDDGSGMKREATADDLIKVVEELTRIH
Experimental: CAL-51 cells were purchased from DSMZ (cat. Number ACC302), sub-cultured in 90% Dulbecco's MEM (4.5 g/L glucose, Gibco 11965)+10% heat inactivated FBS (BioConcept, 2-01F1361) and incubated at 37° C., 5% CO2. For the assay, imaging microtiterplate Cell Carrier 96 Ultra (Perkin Elmer 6055302) were pre-coated with Fibronectin (Sigma F085, 30 μl at 0.2 μg/ml) in PBS (100 μl, Gibco 14190) for 45 min at room temperature, rinsed with PBS and CAL-51 cells (30K cells/well) were plated and let to adhere overnight. Cells were treated with compounds typically using a serial dilution ranging from 30 μM to 0.1 nM for 6 hours. Compounds were stored at 10 mM DMSO stocks. Vehicle (DMSO), positive (CC-885, 10 μM) and rescue controls (positive control plus 0.2 μM bortezomib) were also included at this stage. Cells were subsequently rinsed with PBS and fixed in 10% Formalin solution (50 μl, Sigma HT5011)) for 20 mins at room temperature. Following three consecutive PBS washes (100 μl), cells were permeabilized in 0.1% Triton X-100 in PBS (Sigma 93443, 50 μl) for 15 mins at room temperature. Following three further PBS washes, 50 μl blocking buffer (1% BSA, Sigma A4503, in PBS) was added for 45 min for signal-to-noise reduction. Primary antibody (human GSPT1, Sigma HPA052488) was diluted in blocking buffer (dil. 1/300, 35 μl/well) and incubated with the cells overnight at 4° C. After three PBS washes, Alexa-fluor 488 coupled secondary antibodies (Invitrogen, A32731, dil. 1/1000), Alexa-fluor 647-Phalloidin (Invitrogen, A22287, dil. 1/200) and DAPI (Thermo, #62248, dil. 1/1000) were diluted in blocking buffer and incubated with the samples for 2 hours at room temperature. After three final PBS washes, samples were conserved in 100 μl PBS in the dark, until measurement. Image acquisition was performed on the Operetta High-Content Imager (Perkin-Elmer). Fluorescence intensity of Alexa-Fluor 488 (GSPT1), Alexa-Fluor 647 (Actin) and DAPI (Nucleus) were measured. For the determination of GSPT1 DC50 values, a custom algorithm implemented in the PerkinElmer image analysis software Harmony-Acapella® was developed. After user-defined setting of adjustment parameters, the analysis was run identically without human intervention for all image fields. DAPI staining of the nuclei was used to determine the location of cells using standard nuclei detection modules. Segmentation artifacts were removed by threshold-based filters for area, roundness and intensity. The outline of the cells was determined analogously from the sum of the normalized, smoothed DAPI and Actin channel, starting from each nucleus. The Alexa-Fluor 488 (GSPT1) signal intensity in each cell was finally measured, in order to obtain a Mean intensity per cell. GSPT1 degradation (DC50) was calculated after normalization to controls and data import in CDD vault Database, using non-linear regression.

[3] = bounds stated, read-out: IC50 value

IC50 ([1]; Table 3B, read-out: rFP IC50)	IC50 [1, 3]	Structure (SMILES)	other results
> 1.9 µM	–	Cc1ccc(NC(=O)OCc2cc(Br)c3c(c2)C(=O)N(C2CCC(=O)NC2=O)C3)cc1Cl (centres unmarked) [Compound 501]	–
–	–	COc1cc(COC(=O)Nc2cc(C)cc(F)c2)cc2c1CN(C1CCC(=O)NC1=O)C2=O (centres unmarked) [Compound 567]	DC50 [2]: ≤ 0.03 µM
≤ 0.6 µM	–	COc1cc(COC(=O)Nc2ccc(C(C)(C)C)nc2)cc2c1CN(C1CCC(=O)NC1=O)C2=O (centres unmarked) [Compound 544]	–
> 1.9 µM	–	O=C1CCC(N2Cc3c(F)cc(COC(=O)Nc4cc(F)cc(OC(F)(F)F)c4)cc3C2=O)C(=O)N1 (centres unmarked) [Compound 512]	–
> 1.9 µM	–	Cc1ccc(NC(=O)OCc2ccc3c(c2F)C(=O)N(C2CCC(=O)NC2=O)C3)cc1Cl (centres unmarked) [Compound 571]	–
≤ 0.6 µM	–	COc1cc(COC(=O)Nc2cnc(-c3ccccc3)c(C)c2)cc2c1CN(C1CCC(=O)NC1=O)C2=O (centres unmarked) [Compound 559]	–
> 1.9 µM	–	O=C1CCC(N2Cc3c(F)cc(COC(=O)Nc4cccc(OC(F)(F)F)c4)cc3C2=O)C(=O)N1 (centres unmarked) [Compound 515]	–
–	< 0.6 µM	CC(C)(C)c1ccccc1NC(=O)NCc1ccc2c(c1)C(=O)N(C1CCC(=O)NC1=O)C2 (centres unmarked) [Compound 11]	–
> 1.9 µM	–	Cc1ccc(NC(=O)OCc2cc(C#N)c3c(c2)C(=O)N(C2CCC(=O)NC2=O)C3)cc1Cl (centres unmarked) [Compound 502]	–
–	< 0.6 µM	Cc1cccc(NC(=O)NCc2ccc3c(c2)C(=O)N(C2CCC(=O)NC2=O)C3)c1C (centres unmarked) [Compound 44]	–
> 1.9 µM	–	O=C1CCC(N2Cc3c(F)cc(COC(=O)Nc4cc(Cl)cc(Cl)c4)cc3C2=O)C(=O)N1 (centres unmarked) [Compound 528]	–
≤ 0.6 µM	–	COc1cc(COC(=O)Nc2cccc(C(C)(C)C)c2)cc2c1CN(C1CCC(=O)NC1=O)C2=O (centres unmarked) [Compound 554]	–
–	< 0.6 µM	O=C1CCC(N2Cc3ccc(CNC(=O)Nc4ccc(F)c(F)c4)cc3C2=O)C(=O)N1 (centres unmarked) [Compound 39]	–
–	< 0.6 µM	O=C1CCC(N2Cc3ccc(CNC(=O)Nc4ccccc4C(F)(F)F)cc3C2=O)C(=O)N1 (centres unmarked) [Compound 49]	–
≤ 0.6 µM	–	COc1cc(COC(=O)Nc2ccc(N3CCCCC3C)nc2)cc2c1CN(C1CCC(=O)NC1=O)C2=O (centres unmarked) [Compound 538]	–
–	< 0.6 µM	O=C1CCC(N2Cc3ccc(CNC(=O)NCCc4ccccc4)cc3C2=O)C(=O)N1 (centres unmarked) [Compound 27]	–
≤ 0.6 µM	–	COc1cc(COC(=O)Nc2ccc(-c3ccccc3C)nc2)cc2c1CN(C1CCC(=O)NC1=O)C2=O (centres unmarked) [Compound 560]	–
–	< 0.6 µM	CCOc1ccc(NC(=O)NCc2ccc3c(c2)C(=O)N(C2CCC(=O)NC2=O)C3)cc1 (centres unmarked) [Compound 16]	–
> 1.9 µM	–	O=C1CCC(N2Cc3c(F)cc(COC(=O)Nc4cc(Cl)cc(OC(F)F)c4)cc3C2=O)C(=O)N1 (centres unmarked) [Compound 534]	–
> 1.9 µM	–	CC1(c2ccc(NC(=O)OCc3cc(F)c4c(c3)C(=O)N(C3CCC(=O)NC3=O)C4)cc2)CC1 (centres unmarked) [Compound 513]	–
≤ 0.6 µM	–	COc1cc(COC(=O)Nc2ccc(C3(C)CC3)cc2)cc2c1CN(C1CCC(=O)NC1=O)C2=O (centres unmarked) [Compound 540]	–
> 1.9 µM	–	Cc1ccc(NC(=O)OCc2cc(Cl)c3c(c2)C(=O)N(C2CCC(=O)NC2=O)C3)cc1Cl (centres unmarked) [Compound 504]	–
–	< 0.6 µM	CCc1ccc(NC(=O)NCc2ccc3c(c2)C(=O)N(C2CCC(=O)NC2=O)C3)cc1 (centres unmarked) [Compound 18]	–
